Measured values taken from publication PMC8861431, “Tissue Pharmacokinetic Properties and Bystander Potential of Hypoxia-Activated Prodrug CP-506 by Agent-Based Modelling” (Frontiers in Pharmacology, 2022).
Like-named read-outs stand apart in the source and are kept apart here.

How the values were obtained:
HCT-116 WT cell line = experiment: Monolayer clonogenic assay; type: cell-based; conditions: Homo sapiens; HCT-116 WT monolayer; 4 h exposure, <1 ppm O2; read-out: Clonogenic IC50 under anoxia
Method: Cells (4.8 x 10^5 cells) were seeded with 2 ml culture medium into 6-well plates and left to attach for 2 h in a humidified 37°C incubator. Compounds were then prepared in culture medium and added in a 500 µl volume to each well. Plates were returned to a humidified 37°C incubator for the duration of the drug exposure (4 h). Aerobic and anoxic experiments were performed as described above. Plates were then removed from the anaerobic chamber and processed alongside the aerobic cultures. Cells were detached from monolayer by trypsinisation and plated at serial dilutions in 6-well plates. Cells were left to grow in a standard 37°C incubator for 10 days until the controls formed discrete colonies comprised of at least 50 cells. Colonies were visualized by staining with methylene blue (2 g/L in 50% aqueous ethanol) for 30 min. The number of colonies with at least 50 cells was manually counted to determine the plating efficiency. The surviving fraction was determined as the ratio of plating efficiency of treated cells to that of the controls.

[1] = test system: spheroid co-cultures of POR-R activator and PORko-G target cells; experiment: Spheroid growth delay assay; type: cell-based; conditions: Homo sapiens, 4 h, 4 h exposure, anoxic, read-out: IC50 for inhibition of spheroid growth
Method: Spheroid cultures were established by seeding 3 x 10^3 cells with 100 µl medium into ultra-low attachment, round bottom 96-well plates (Corning Inc, Corning, NY). Plates were briefly centrifuged (200 g, 5 min) to facilitate cell aggregation and grown in a standard incubator (37°C, 21% O2, 5% CO2) for 4 days before experiments. The culture medium was then aspirated, and the established spheroids taken into a H2/Pd-catalyst anaerobic chamber. Spheroids were washed three times with anoxia pre-equilibrated medium and left to settle for 1 h in a humidified 37°C incubator. Spheroids were removed from the anaerobic chamber after a 4 h drug exposure and washed three times with fresh culture medium. The growth of representative spheroids was monitored for 10 days using a published method of image analysis for volume determination ([Mao et al., 2018]). The remainder were enzymatically dissociated and plated at serial dilutions in 6-well plates containing 2 µM puromycin or 1 mg/ml geneticin for positive selection of POR-R and PORko-G cells, respectively. Colonies were visualized after 10 days of drug-free proliferation by staining with methylene blue (2 g/L in 50% aqueous ethanol) for 30 min. The number of colonies with at least 50 cells was manually counted to determine the plating efficiency. The surviving fraction was determined as the ratio of the plating efficiency of treated cells to that of the controls.

[2] = test system: POR-overexpressing HCT-116 cells (POR-R) monolayer; experiment: Cellular uptake studies / cellular PK model; type: in vitro ADME, human; conditions: aerobic 21% O2, Co range 0.3–30 µM
[3] = test system: POR-overexpressing HCT-116 cells (POR-R) monolayer; conditions: cited from earlier work
[4] = Table 1 footnote d: assumed equivalent to measured metabolites or derived from published estimates for PR-104A metabolites, ref Foehrenbacher et al., 2013a, Hong et al., 2018b
[5] = Table S3, fixed to fitted values for downstream metabolites of PR-104 ('metabolite 2'), ref (2,3)

Row | Compound | IC50 (HCT-116 WT cell line) | IC50 ([1]; 0% activator cells) | IC50 ([1]; 10% activator cells) | IC50 ([1]; 50% activator cells) | IC50 ([1]; 100% activator cells) | Steady-state Ci/Ce ratio (cell uptake) [2] | k in: rate constant for transfer from the extracellular to intracellular volume [3, 4] | k out: rate constant for transfer from the intracellular to extracellular volume [3, 4] | T1/2: time required to reduce the concentration to half its initial value [3, 5] | kin: rate of transfer from the extracellular to the intracellular compartment [3, 5] | kout: rate of transfer from the intracellular to the extracellular compartment [3, 5]
1 | CCN1CCN(C(=O)c2cc(N(CCBr)CCOS(C)(=O)=O)c(S(C)(=O)=O)cc2[N+](=O)[O-])CC1 [CP-506, 2-[(2-bromoethyl)-5-[(4-ethyl-1-piperazinyl)carbonyl]-2-(methylsulfonyl)-4-nitroanilino]ethyl methanesulfonate] | 7.4 ± 0.5 µM | > 40 µM | 13.6 µM | 5.6 µM | 2.4 µM | 50 fold | – | – | – | – | –
2 | CCN1CCN(C(=O)c2cc(N(CCCl)CCCl)c(S(C)(=O)=O)cc2N)CC1 [CP-506M-Cl2, (2-Amino-5-(bis(2-chloroethyl)amino)-4-(methylsulfonyl)phenyl)(4-ethylpiperazin-1-yl)methanone] | – | – | – | – | – | – | 0.9 ^d min^−1 | 0.3 ^d min^−1 | 6.6 min | 0.9 min⁻¹ | 0.3 min⁻¹
